A value given as a limit tells only on which side of the number the result lay.

The term IC50 denotes the point on the concentration scale where inhibition reaches its midpoint. High values mean weaker potency in that assay, low ones greater potency in that assay.

In the assay the target is IRAK4 (Homo sapiens (Human), UniProt Q9NWZ3). The experiment in a line: In vitro IRAK4 phosphorylation activity assay. It counts as biochemical. The following applies: [γ-33P]-ATP, myelin basic protein substrate, 40 minutes at room temperature; categories. Summed up: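 Radiometric filter-binding assay, no compound–kinase preincubation; 8 mM MOPS pH 7.0, 0.2 mM EDTA, 10 mM Mg acetate, 0.33 mg/mL myelin basic protein substrate, [γ-33P]-ATP. Reaction 40 min at room temperature, stopped with phosphoric acid, scintillation counting; IC50 reported in categories.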
Chain of IRAK4 (Q9NWZ3 whole entry): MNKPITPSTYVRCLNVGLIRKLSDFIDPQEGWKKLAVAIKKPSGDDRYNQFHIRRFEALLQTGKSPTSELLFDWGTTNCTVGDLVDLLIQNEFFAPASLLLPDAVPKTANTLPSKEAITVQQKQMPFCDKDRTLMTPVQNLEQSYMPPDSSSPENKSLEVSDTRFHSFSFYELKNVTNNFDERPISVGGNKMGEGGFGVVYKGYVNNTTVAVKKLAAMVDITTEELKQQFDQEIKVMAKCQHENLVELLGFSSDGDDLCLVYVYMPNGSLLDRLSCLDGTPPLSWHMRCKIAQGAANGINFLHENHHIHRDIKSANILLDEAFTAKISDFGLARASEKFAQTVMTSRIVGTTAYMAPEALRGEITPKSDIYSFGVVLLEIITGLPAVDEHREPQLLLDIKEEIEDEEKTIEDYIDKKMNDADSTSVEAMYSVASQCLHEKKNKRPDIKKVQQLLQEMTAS
For `Cn1cc(-c2cccc(C(=O)Nc3nc(CCCC(=O)N4CCCC(F)(F)C4)cn3-c3ccccc3)c2)cn1` [Example 175, N-(4-(4-(3,3-difluoropiperidin-1-yl)-4-oxobutyl)-1-phenyl-1H-imidazol-2-yl)-3-(1-methyl-1H-pyrazol-4-yl)benzamide], the IC50 was < 50 nM.
`Cn1cc(-c2cccc(C(=O)Nc3nc(CCCC(=O)N4CCCC[C@@H]4C(F)(F)F)cn3-c3ccccc3)c2)cn1` [Example 176, (R)-3-(1-methyl-1H-pyrazol-4-yl)-N-(4-(4-oxo-4-(2-(trifluoromethyl)piperidin-1-yl)butyl)-1-phenyl-1H-imidazol-2-yl)benzamide]: the IC50 was < 50 nM.
The value for `COC1CCN(C(=O)CCCc2cn(-c3ccccc3)c(NC(=O)c3cccc(-c4cnn(C)c4)c3)n2)CC1` [Example 177, N-(4-(4-(4-methoxypiperidin-1-yl)-4-oxobutyl)-1-phenyl-1H-imidazol-2-yl)-3-(1-methyl-1H-pyrazol-4-yl)benzamide] was < 50 nM; that for `Cn1cc(-c2cccc(C(=O)Nc3nc(CCCC(=O)N4CCCC(O)C4)cn3-c3ccccc3)c2)cn1` (stereo not drawn) [Example 178, N-(4-(4-(3-hydroxypiperidin-1-yl)-4-oxobutyl)-1-phenyl-1H-imidazol-2-yl)-3-(1-methyl-1H-pyrazol-4-yl)benzamide] was < 50 nM.
For the compound `Cn1cc(-c2cccc(C(=O)Nc3nc(CCCC(=O)NC4CCOC4)cn3-c3ccccc3)c2)cn1` (stereo not drawn) [Example 179, 3-(1-methyl-1H-pyrazol-4-yl)-N-(4-(4-oxo-4-((tetrahydrofuran-3-yl)amino)butyl)-1-phenyl-1H-imidazol-2-yl)benzamide], the IC50 was < 50 nM.
Turning to `Cn1cc(-c2cccc(C(=O)Nc3nc(CCCC(=O)NCC4CCOC4)cn3-c3ccccc3)c2)cn1` (stereo not drawn) [Example 180, 3-(1-methyl-1H-pyrazol-4-yl)-N-(4-(4-oxo-4-(((tetrahydrofuran-3-yl)methyl)amino)butyl)-1-phenyl-1H-imidazol-2-yl)benzamide], the IC50 is < 50 nM.
The value for `Cn1cc(-c2cccc(C(=O)Nc3nc(CCCC(=O)N4CCN(C(C)(C)C)CC4)cn3-c3ccccc3)c2)cn1` [Example 181, N-(4-(4-(4-(tert-butyl)piperazin-1-yl)-4-oxobutyl)-1-phenyl-1H-imidazol-2-yl)-3-(1-methyl-1H-pyrazol-4-yl)benzamide] was < 50 nM; that for `Cn1cc(-c2cccc(C(=O)Nc3nc(CCCC(=O)N4CCN(C5CCCCC5)CC4)cn3-c3ccccc3)c2)cn1` [Example 182, N-(4-(4-(4-cyclohexylpiperazin-1-yl)-4-oxobutyl)-1-phenyl-1H-imidazol-2-yl)-3-(1-methyl-1H-pyrazol-4-yl)benzamide] was < 50 nM.
Consider `CN1CCCN(C(=O)CCCc2cn(-c3ccccc3)c(NC(=O)c3cccc(-c4cnn(C)c4)c3)n2)CC1` [Example 183, N-(4-(4-(4-methyl-1,4-diazepan-1-yl)-4-oxobutyl)-1-phenyl-1H-imidazol-2-yl)-3-(1-methyl-1H-pyrazol-4-yl)benzamide], for which the IC50 is < 50 nM.
The value for `Cn1cc(-c2cccc(C(=O)Nc3nc(CCCC(=O)NCCN4CCOCC4)cn3-c3ccccc3)c2)cn1` [Example 184, 3-(1-methyl-1H-pyrazol-4-yl)-N-(4-(4-((2-morpholinoethyl)amino)-4-oxobutyl)-1-phenyl-1H-imidazol-2-yl)benzamide] was > 100 nM; that for `Cn1cc(-c2cccc(C(=O)Nc3nc(CCCC(=O)NC[C@@H](F)C(C)(C)O)cn3-c3ccccc3)c2)cn1` [Example 185, (R)—N-(4-(4-((2-fluoro-3-hydroxy-3-methylbutyl)amino)-4-oxobutyl)-1-phenyl-1H-imidazol-2-yl)-3-(1-methyl-1H-pyrazol-4-yl)benzamide] was 50 to 100 nM.
The value for `CN1CCN(CCCNC(=O)CCCc2cn(-c3ccccc3)c(NC(=O)c3cccc(-c4cnn(C)c4)c3)n2)CC1` [Example 186, 3-(1-methyl-1H-pyrazol-4-yl)-N-(4-(4-((3-(4-methylpiperazin-1-yl)propyl)amino)-4-oxobutyl)-1-phenyl-1H-imidazol-2-yl)benzamide] was 50 to 100 nM; that for `CN1CCN(CCNC(=O)CCCc2cn(-c3ccccc3)c(NC(=O)c3cccc(-c4cnn(C)c4)c3)n2)CC1` [Example 187, 3-(1-methyl-1H-pyrazol-4-yl)-N-(4-(4-((2-(4-methylpiperazin-1-yl)ethyl)amino)-4-oxobutyl)-1-phenyl-1H-imidazol-2-yl)benzamide] was < 50 nM; that for `Cn1cc(-c2cccc(C(=O)Nc3nc(CCCC(=O)N4CCN(c5ccccc5)CC4)cn3-c3ccccc3)c2)cn1` [Example 188, 3-(1-methyl-1H-pyrazol-4-yl)-N-(4-(4-oxo-4-(4-phenylpiperazin-1-yl)butyl)-1-phenyl-1H-imidazol-2-yl)benzamide] was < 50 nM.
Turning to `Cn1cc(-c2cccc(C(=O)Nc3nc(CCCC(N)=O)cn3-c3ccccc3)c2)cn1` [Example 189, N-(4-(4-amino-4-oxobutyl)-1-phenyl-1H-imidazol-2-yl)-3-(1-methyl-1H-pyrazol-4-yl)benzamide], the concentration for half-maximal inhibition (IC50) was < 50 nM.
The same measure for `Cn1cc(-c2cccc(C(=O)Nc3nc(CCCC(=O)Nc4ccn(C)n4)cn3-c3ccccc3)c2)cn1` [Example 190, N-(4-(4-((1-methyl-1H-pyrazol-3-yl)amino)-4-oxobutyl)-1-phenyl-1H-imidazol-2-yl)-3-(1-methyl-1H-pyrazol-4-yl)benzamide]: < 50 nM.
The value for `Cn1cc(-c2cccc(C(=O)Nc3nc(CCCC(=O)Nc4ccc5c(cnn5C)c4)cn3-c3ccccc3)c2)cn1` [Example 191, N-(4-(4-((1-methyl-1H-indazol-5-yl)amino)-4-oxobutyl)-1-phenyl-1H-imidazol-2-yl)-3-(1-methyl-1H-pyrazol-4-yl)benzamide] was < 50 nM; that for `Cn1cc(-c2cccc(C(=O)Nc3nc(CCC(=O)Nc4ccccc4)cn3-c3ccccc3)c2)cn1` [Example 193, 3-(1-methyl-1H-pyrazol-4-yl)-N-(4-(3-oxo-3-(phenylamino)propyl)-1-phenyl-1H-imidazol-2-yl)benzamide] was 50 to 100 nM.
The same measure for `CN1CCN(C(=O)CCc2cn(-c3ccccc3)c(NC(=O)c3cccc(-c4cnn(C)c4)c3)n2)CC1` [Example 194, 3-(1-methyl-1H-pyrazol-4-yl)-N-(4-(3-(4-methylpiperazin-1-yl)-3-oxopropyl)-1-phenyl-1H-imidazol-2-yl)benzamide]: < 50 nM.
Regarding `CN1CCCN(C(=O)CCc2cn(-c3ccccc3)c(NC(=O)c3cccc(-c4cnn(C)c4)c3)n2)CC1` [Example 195, N-(4-(3-(4-methyl-1,4-diazepan-1-yl)-3-oxopropyl)-1-phenyl-1H-imidazol-2-yl)-3-(1-methyl-1H-pyrazol-4-yl)benzamide], the concentration for half-maximal inhibition (IC50) is < 50 nM.
The same measure for `Cn1cc(-c2cccc(C(=O)Nc3nc(CCCCC(=O)NC4CCOCC4)cn3-c3ccccc3)c2)cn1` [Example 197, 3-(1-methyl-1H-pyrazol-4-yl)-N-(4-(5-oxo-5-((tetrahydro-2H-pyran-4-yl)amino)pentyl)-1-phenyl-1H-imidazol-2-yl)benzamide]: < 50 nM; for `Cn1cc(-c2cccc(C(=O)Nc3nc(CCCCC(=O)NCCN4CCOCC4)cn3-c3ccccc3)c2)cn1` [Example 198, 3-(1-methyl-1H-pyrazol-4-yl)-N-(4-(5-((2-morpholinoethyl)amino)-5-oxopentyl)-1-phenyl-1H-imidazol-2-yl)benzamide]: < 50 nM.
Consider `Cn1cc(-c2cccc(C(=O)Nc3nc(CCCCCC(=O)NC4CC4)cn3-c3ccccc3)c2)cn1` [Example 199, N-(4-(6-(cyclopropylamino)-6-oxohexyl)-1-phenyl-1H-imidazol-2-yl)-3-(1-methyl-1H-pyrazol-4-yl)benzamide], for which the IC50 was < 50 nM.
The value for `Cn1cc(-c2cccc(C(=O)Nc3nc(CCCCCC(=O)N4CCCCC4)cn3-c3ccccc3)c2)cn1` [Example 200, 3-(1-methyl-1H-pyrazol-4-yl)-N-(4-(6-oxo-6-(piperidin-1-yl)hexyl)-1-phenyl-1H-imidazol-2-yl)benzamide] was < 50 nM.
For `CN1CCN(C(=O)CCCCCc2cn(-c3ccccc3)c(NC(=O)c3cccc(-c4cnn(C)c4)c3)n2)CC1` [Example 201, 3-(1-methyl-1H-pyrazol-4-yl)-N-(4-(6-(4-methylpiperazin-1-yl)-6-oxohexyl)-1-phenyl-1H-imidazol-2-yl)benzamide], the IC50 was < 50 nM.
With `Cn1cc(-c2cccc(C(=O)Nc3nc(CCCC(=O)N4CCNCC4)cn3-c3ccccc3)c2)cn1` [Example 202, 3-(1-methyl-1H-pyrazol-4-yl)-N-(4-(4-oxo-4-(piperazin-1-yl)butyl)-1-phenyl-1H-imidazol-2-yl)benzamide], the IC50 is < 50 nM.
`Cn1cc(-c2cccc(C(=O)Nc3nc(CCC(=O)N4CCNCC4)cn3-c3ccccc3)c2)cn1` [Example 203, 3-(1-methyl-1H-pyrazol-4-yl)-N-(4-(3-oxo-3-(piperazin-1-yl)propyl)-1-phenyl-1H-imidazol-2-yl)benzamide] gave a 50% inhibitory concentration (IC50) of 50 to 100 nM.
The same measure for `Cn1cc(-c2cccc(C(=O)Nc3nc(CCCCC(=O)N4CCNCC4)cn3-c3ccccc3)c2)cn1` [Example 204, 3-(1-methyl-1H-pyrazol-4-yl)-N-(4-(5-oxo-5-(piperazin-1-yl)pentyl)-1-phenyl-1H-imidazol-2-yl)benzamide]: < 50 nM.
`CC(=O)N1CCN(C(=O)CCCc2cn(-c3ccccc3)c(NC(=O)c3cccc(-c4cnn(C)c4)c3)n2)CC1` [Example 205, N-(4-(4-(4-acetylpiperazin-1-yl)-4-oxobutyl)-1-phenyl-1H-imidazol-2-yl)-3-(1-methyl-1H-pyrazol-4-yl)benzamide]: the IC50 was < 50 nM.
For `Cn1cc(-c2cccc(C(=O)Nc3nc(CCCC(=O)N4CCN(S(C)(=O)=O)CC4)cn3-c3ccccc3)c2)cn1` [Example 206, 3-(1-methyl-1H-pyrazol-4-yl)-N-(4-(4-(4-(methylsulfonyl)piperazin-1-yl)-4-oxobutyl)-1-phenyl-1H-imidazol-2-yl)benzamide], the IC50 was < 50 nM.

Source of the values: US12534452B2, “N-(1H-imidazol-2-yl)benzamide compound and pharmaceutical composition comprising the same as active ingredient” (KAINOS MEDICINE, INC., priority 2019, dated 2026).
